For orientation: EC50 means the concentration at which the effect is half-maximal. By solubility is commonly meant the concentration that dissolves in the medium under given conditions. Low values mean little dissolved substance, high ones much dissolved substance.

The record followed here is ChEMBL document CHEMBL5370608, “Selective and Bioavailable HDAC6 2-(Difluoromethyl)-1,3,4-oxadiazole Substrate Inhibitors and Modeling of Their Bioactivation Mechanism” (J Med Chem, 2023).

Data set [1] has as its target T1, Protein deacetylase HDAC6 (Homo sapiens, UniProt Q9UBN7).
T1 sequence (Q9UBN7 whole entry): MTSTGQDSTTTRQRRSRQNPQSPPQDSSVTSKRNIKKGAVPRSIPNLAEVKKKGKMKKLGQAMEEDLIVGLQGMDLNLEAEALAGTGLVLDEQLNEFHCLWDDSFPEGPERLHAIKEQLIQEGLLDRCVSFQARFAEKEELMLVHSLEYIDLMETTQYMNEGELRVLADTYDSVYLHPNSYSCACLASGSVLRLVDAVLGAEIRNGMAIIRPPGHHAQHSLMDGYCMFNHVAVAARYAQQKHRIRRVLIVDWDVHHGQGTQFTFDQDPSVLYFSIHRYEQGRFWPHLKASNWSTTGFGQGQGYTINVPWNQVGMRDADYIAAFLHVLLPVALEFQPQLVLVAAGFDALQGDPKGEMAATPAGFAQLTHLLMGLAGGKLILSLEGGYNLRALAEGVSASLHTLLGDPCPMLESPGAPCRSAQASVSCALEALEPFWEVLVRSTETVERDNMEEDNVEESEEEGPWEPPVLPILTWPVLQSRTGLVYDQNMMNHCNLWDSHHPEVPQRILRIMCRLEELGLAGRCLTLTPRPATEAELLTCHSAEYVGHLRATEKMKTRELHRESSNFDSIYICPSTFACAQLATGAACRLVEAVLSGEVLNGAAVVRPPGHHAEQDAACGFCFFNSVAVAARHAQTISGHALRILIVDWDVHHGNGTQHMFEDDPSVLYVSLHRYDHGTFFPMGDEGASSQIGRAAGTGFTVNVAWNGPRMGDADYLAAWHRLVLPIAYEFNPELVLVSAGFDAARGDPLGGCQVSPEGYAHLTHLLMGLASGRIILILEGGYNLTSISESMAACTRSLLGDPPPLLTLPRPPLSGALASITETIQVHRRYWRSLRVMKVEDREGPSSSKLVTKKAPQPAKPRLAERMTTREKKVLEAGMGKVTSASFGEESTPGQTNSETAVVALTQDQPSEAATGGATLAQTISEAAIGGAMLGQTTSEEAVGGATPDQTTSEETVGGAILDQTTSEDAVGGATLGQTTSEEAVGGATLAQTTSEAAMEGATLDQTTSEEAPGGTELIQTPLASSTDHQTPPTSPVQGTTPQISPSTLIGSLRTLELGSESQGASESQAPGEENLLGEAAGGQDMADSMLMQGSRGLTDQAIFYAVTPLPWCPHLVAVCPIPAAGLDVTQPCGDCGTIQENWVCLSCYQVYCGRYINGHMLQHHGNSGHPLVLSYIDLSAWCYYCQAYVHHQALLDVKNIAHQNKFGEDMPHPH
The data set can be described thus: Stability of the compound assessed as full-length human HDAC6 mediated-drug degradation measured after 96 hrs by time-resolved mass spectrometry analysis. It is filed as ADME.

Another data set relates to THP-1. The data set can be described thus: Cytotoxicity against human THP-1 cells assessed as reduction in cell viability by alamar blue staining based assay. It is filed as functional.
Data set [2] has as its target T1, Protein deacetylase HDAC6. The data set can be described thus: Inhibition of HDAC6 in human BEAS-2B cells assessed as deacetylation of acetylated histone-3 level incubated for 24 hrs by Western blot analysis. It is filed as cell-based. (Immunoblotting shows a protein as a band on a membrane.)
The next data set has as its target T2, Histone deacetylase 7 (Homo sapiens, UniProt Q8WUI4).
T2 sequence (Q8WUI4 whole entry): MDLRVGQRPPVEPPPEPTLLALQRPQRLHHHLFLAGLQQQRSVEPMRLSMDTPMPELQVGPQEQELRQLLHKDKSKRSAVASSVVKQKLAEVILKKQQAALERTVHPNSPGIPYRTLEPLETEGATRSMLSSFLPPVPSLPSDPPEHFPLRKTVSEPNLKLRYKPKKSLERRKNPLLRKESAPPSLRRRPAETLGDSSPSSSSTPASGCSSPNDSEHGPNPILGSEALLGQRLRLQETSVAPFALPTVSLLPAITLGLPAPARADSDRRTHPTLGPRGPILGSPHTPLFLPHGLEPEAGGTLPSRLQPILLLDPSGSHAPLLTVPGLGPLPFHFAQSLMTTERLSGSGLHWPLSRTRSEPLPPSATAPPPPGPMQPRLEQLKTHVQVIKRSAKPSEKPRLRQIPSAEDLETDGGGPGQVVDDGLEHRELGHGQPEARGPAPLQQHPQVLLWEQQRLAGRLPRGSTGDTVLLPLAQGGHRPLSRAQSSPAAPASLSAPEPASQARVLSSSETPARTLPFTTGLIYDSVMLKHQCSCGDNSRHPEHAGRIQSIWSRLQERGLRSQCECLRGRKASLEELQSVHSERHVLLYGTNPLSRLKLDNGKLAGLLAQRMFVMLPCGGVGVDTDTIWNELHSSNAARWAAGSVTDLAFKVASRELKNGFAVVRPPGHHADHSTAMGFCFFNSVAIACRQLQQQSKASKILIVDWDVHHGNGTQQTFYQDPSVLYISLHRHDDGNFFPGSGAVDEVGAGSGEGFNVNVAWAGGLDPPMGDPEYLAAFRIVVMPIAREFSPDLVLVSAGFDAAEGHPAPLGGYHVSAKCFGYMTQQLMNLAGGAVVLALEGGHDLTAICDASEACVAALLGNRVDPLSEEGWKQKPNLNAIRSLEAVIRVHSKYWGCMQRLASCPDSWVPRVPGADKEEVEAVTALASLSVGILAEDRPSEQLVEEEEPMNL
The data set can be described thus: Inhibition of human recombinant HDAC7 incubated for 30 mins by fluorimetry analysis.

In data set [3] the target is T1, Protein deacetylase HDAC6. In words: Inhibition of HDAC6 in human BEAS-2B cells assessed as deacetylation of acetylated alpha-tubulin level incubated for 24 hrs by Western blot analysis. The format is cell-based.
Data set [4] is described as follows: Aqueous solubility of the compound at pH 7.4. The format is physicochemical.
Data set [5] addresses T1, Protein deacetylase HDAC6. In words: Inhibition of human recombinant HDAC6 incubated for 30 mins by fluorimetry analysis.
Another data set concerns the target Histone deacetylase 9 (Homo sapiens, UniProt Q9UKV0). In words: Inhibition of human recombinant HDAC9 incubated for 30 mins by fluorimetry analysis.

Molecules are shown by their SMILES. ≈ marks a conversion by molar mass, not a printed value.

Histone deacetylase 9, sequence (Q9UKV0 whole entry): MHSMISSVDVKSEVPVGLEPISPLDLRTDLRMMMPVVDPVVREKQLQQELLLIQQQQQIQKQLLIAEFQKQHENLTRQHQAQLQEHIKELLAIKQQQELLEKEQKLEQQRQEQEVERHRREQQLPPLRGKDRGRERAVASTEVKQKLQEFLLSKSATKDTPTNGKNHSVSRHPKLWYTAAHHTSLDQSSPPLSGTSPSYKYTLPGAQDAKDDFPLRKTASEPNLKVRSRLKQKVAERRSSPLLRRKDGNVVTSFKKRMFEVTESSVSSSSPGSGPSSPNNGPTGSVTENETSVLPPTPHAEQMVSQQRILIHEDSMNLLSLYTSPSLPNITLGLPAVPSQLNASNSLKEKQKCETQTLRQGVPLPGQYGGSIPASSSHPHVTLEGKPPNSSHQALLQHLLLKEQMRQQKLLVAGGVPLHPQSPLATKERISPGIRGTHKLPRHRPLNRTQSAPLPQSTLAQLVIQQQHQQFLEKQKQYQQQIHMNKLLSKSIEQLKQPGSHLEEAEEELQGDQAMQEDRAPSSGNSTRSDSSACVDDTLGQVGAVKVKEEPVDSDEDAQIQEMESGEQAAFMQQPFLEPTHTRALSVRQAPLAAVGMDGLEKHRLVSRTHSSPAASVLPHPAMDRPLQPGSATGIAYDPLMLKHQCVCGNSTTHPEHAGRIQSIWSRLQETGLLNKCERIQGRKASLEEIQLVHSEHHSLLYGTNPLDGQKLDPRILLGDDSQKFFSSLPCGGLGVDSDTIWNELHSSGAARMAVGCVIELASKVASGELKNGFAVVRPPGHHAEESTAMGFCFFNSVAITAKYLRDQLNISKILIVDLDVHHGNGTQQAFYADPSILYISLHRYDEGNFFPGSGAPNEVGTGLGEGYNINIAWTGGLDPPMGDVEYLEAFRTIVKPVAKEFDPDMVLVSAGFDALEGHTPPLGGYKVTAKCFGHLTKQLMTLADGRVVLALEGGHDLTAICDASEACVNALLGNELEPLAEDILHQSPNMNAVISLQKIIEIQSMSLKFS

Regarding `CS(=O)(=O)NCC(Nc1ncc(-c2nnc(C(F)F)o2)cn1)c1ccc(OC(F)(F)F)cc1` (configuration not stated), the Stability result in data set [1] is listed as “Unstable”. The IC50 in the data set on THP-1 (read-out: IC50) is 126 µM; in the data set on THP-1 (read-out: pIC50 (converted)), 126 µM; in data set [2], over 10 µM; on Histone deacetylase 7, 30 µM; in data set [5] it was 0.58 µM; at Histone deacetylase 9, 19 µM. Further, the EC50 in data set [3] was 0.0631 µM. The compound further showed a solubility in data set [4] of 110 µM (≈ 54.4 µg/mL).

As for `FC(F)c1nnc(-c2ccc(Cn3nnc(-c4ccccn4)n3)nc2)o1`, the Stability entry in data set [1] was “Unstable”. Further, the IC50 with THP-1 (read-out: pIC50 (converted)) is over 251 µM; in data set [2], over 10 µM; at Histone deacetylase 7 it was over 100 µM; in data set [5] it was 0.19 µM; on Histone deacetylase 9, over 100 µM. Besides, in data set [3], the EC50 was 0.251 µM. In data set [4], this compound had a solubility of 410 µM (≈ 146 µg/mL).

As to `COc1ccccc1-c1nnn(Cc2ccc(-c3nnc(C(F)F)o3)cn2)n1`, the IC50 was over 10 µM in data set [2], over 100 µM at Histone deacetylase 7, 0.17 µM in data set [5] and over 100 µM on Histone deacetylase 9. Besides, the concentration for a half-maximal effect (EC50) in data set [3] was 0.316 µM. Moreover, the solubility in data set [4] was found to be 60 µM (≈ 23.1 µg/mL).

`O=C(NO)c1cnc(NC2(c3ccccc3)CCC(F)(F)CC2)nc1`: the Stability entry in data set [1] is “Stable”. For the same compound, the IC50 is 94 µM with THP-1 (read-out: IC50); 100 µM in the data set with THP-1 (read-out: pIC50 (converted)); over 10 µM in data set [2]; 6.5 µM on Histone deacetylase 7; under 0.01 µM in data set [5]; 19 µM at Histone deacetylase 9. The EC50 in data set [3] was 0.0794 µM. The same compound registered a solubility in data set [4] of 810 µM (≈ 282 µg/mL).
